Marks after values point to notes of the source that are not given here.
Columns and labels:
APEC O2-211 = assay: MIC and MBC determination in M63 media; assay type: cell-based; settings: Escherichia coli; APEC O2-211, M63 media
[1] = system: intracellular APEC O78, O2, and O1 in infected Caco-2, HD11, and THP1 cells; assay: Intracellular survival assay, statements over all serotypes and cells; assay type: cell-based, Escherichia coli
Method: (§1) Intracellular survival assay was conducted as described previously[28],[29] to determine the effect of cidal SMs on APEC survival in phagocytic (HD11, THP-1) and non-phagocytic (Caco-2) cells. Briefly, mid-logarithmic phase grown APEC O78, O1, and O2 were washed and adjusted to 1 × 10^7 CFU/mL in cell culture incomplete media (no FBS and antibiotics). One-hundred microlitres adjusted APEC suspension was added at multiplicity of infection (MOI) 10 to wells of 96-well cell culture plate containing cultured macrophage (HD11, THP-1) and epithelial cells (Caco-2) and incubated for 1 h and 3 h, respectively. […] The cells were then lysed with 100 µL of 0.1% Triton X-100 for 5 mins, serially diluted, and plated on LB agar plate to enumerate viable bacteria. The intracellular bacteria in SMs treated wells were compared with DMSO (1%) treated wells. Two independent experiments in duplicate wells for each concentration of SMs were conducted.

APEC O78-53 = assay: MIC and MBC determination in M63 media; assay type: cell-based; settings: Escherichia coli; APEC O78-53, M63 media
Method: One microlitre SM of each concentration was transferred to each well of a 96-well plate containing 100 µL of the 0.05 OD600 adjusted APEC O78 culture in M63 media. Growth was monitored in Sunrise - Absorbance microplate reader as described above. MIC was indicated by lowest concentration of SM with non-elevated OD600 measurement. MBC was determined by absence of APEC growth on LB agar plate following subculture. […] Two independent experiments were conducted.

[2] = system: intracellular APEC O78 in Caco-2 cells; assay: Intracellular survival assay; assay type: cell-based, Escherichia coli
Method: as §1

[3] = system: intracellular APEC O1 in THP-1 cells; assay: Intracellular survival assay; assay type: cell-based, Escherichia coli
Method: as §1

[4] = system: intracellular APEC O78 in HD11 cells; assay: Intracellular survival assay; assay type: cell-based, Escherichia coli
Method: as §1

[5] = system: intracellular APEC O1 in HD11 cells; assay: Intracellular survival assay; assay type: cell-based, Escherichia coli
Method: as §1

[6] = system: intracellular APEC O78 in THP-1 cells; assay: Intracellular survival assay; assay type: cell-based, Escherichia coli
Method: as §1

[7] = system: intracellular APEC O2 in THP-1 cells; assay: Intracellular survival assay; assay type: cell-based, Escherichia coli
Method: as §1

[8] = system: intracellular APEC O2 in HD11 cells; assay: Intracellular survival assay; assay type: cell-based, Escherichia coli
Method: as §1

[9] = system: intracellular APEC O1 in Caco-2 cells; assay: Intracellular survival assay; assay type: cell-based, Escherichia coli
Method: as §1

[10] = system: intracellular APEC O2 in Caco-2 cells; assay: Intracellular survival assay; assay type: cell-based, Escherichia coli
Method: as §1

APEC O78 [11] = assay: Loss of 260/280 nm absorbing materials assay; assay type: cell-based, Escherichia coli; settings: 2X MBC, 1 h
Method: Membrane permeability assays (crystal violet (CV) uptake and loss of 260/280 nm absorbing materials) were conducted as described previously. […] CV uptake was measured using the formula: (OD DMSO − OD SM/OD DMSO × 100). Two independent experiments in duplicates were conducted.

APEC O15 = assay: MIC and MBC determination in M63 media; assay type: cell-based; settings: Escherichia coli
APEC O115 = assay: MIC and MBC determination in M63 media; assay type: cell-based; settings: Escherichia coli
APEC O78 [12] = assay: Bacterial cytological profiling by confocal microscopy; assay type: cell-based, Escherichia coli; settings: 2X MBC, 2 h
Method: Confocal microscopy was used for bacterial cytological profiling (BCP) to identify the cellular pathways targeted by SMs as described previously. […] After incubation, treated cultures were centrifuged, washed, and resuspended in 100 µL PBS. FM4-64 (#T13320 Molecular Probes/Invitrogen) (1 µg/mL) and SYTO-9 (#S34854 Molecular Probes/Invitrogen) (5 µM) were added to the bacterial cultures and incubated for 45 mins at room temperature with shaking at 150 rpm. Cultures were then centrifuged, washed, and resuspended in PBS to 1/10th volume of the original cultures.

APEC O35 = assay: MIC and MBC determination in M63 media; assay type: cell-based; settings: Escherichia coli
APEC O1 = assay: MIC and MBC determination in M63 media; assay type: cell-based; settings: Escherichia coli

SMILES: CC1CCC(C(C)C)C(OC(=O)Cn2c[n+](CC(=O)OC3CC(C)CCC3C(C)C)c3ccccc32)C1 (stereo not shown) [SM4]
- MBC (APEC O2-211): 25 µM
- MIC (APEC O2-211): 25 µM
- minimal effective concentration ([1]; Escherichia coli, 6 h, O78, O2 and O1, Caco-2, HD11, THP-1, 6 h, read-out: concentration clearing intracellular APEC): ≤ 100 µM
- ranking in clearing intracellular APEC ([1]; all tested serotypes and cells): most effective SMs in clearing intracellular APEC serotypes in all tested cells
- MBC (APEC O78-53): 50 µM
- MIC (APEC O78-53): 25 µM
- minimal effective concentration ([2]; Escherichia coli, O78, Caco-2, 6 h treatment, read-out: SMs intracellular APEC clearance concentration): 50 µM
- intracellular APEC clearance concentration as multiple of MIC (superscript) ([2]; O78, Caco-2): b (2X MIC)
- concentration at which the SM significantly (P < 0.01) reduced intracellular APEC (superscript of t-statistic) ([2]; O78, Caco-2, 6 h): a (0.5X MIC)
- minimal effective concentration ([3]; Escherichia coli, O1, THP-1, 6 h treatment, read-out: SMs intracellular APEC clearance concentration): > 100 µM
- concentration at which the SM significantly (P < 0.01) reduced intracellular APEC (superscript of t-statistic) ([3]; O1, THP-1, 6 h): b (1X MIC)
- minimal effective concentration ([4]; Escherichia coli, O78, HD11, 6 h treatment, read-out: SMs intracellular APEC clearance concentration): 50 µM
- intracellular APEC clearance concentration as multiple of MIC (superscript) ([4]; O78, HD11): b (2X MIC)
- concentration at which the SM significantly (P < 0.01) reduced intracellular APEC (superscript of t-statistic) ([4]; O78, HD11, 6 h): a (0.5X MIC)
- minimal effective concentration ([5]; Escherichia coli, O1, HD11, 6 h treatment, read-out: SMs intracellular APEC clearance concentration): 50 µM
- concentration at which the SM significantly (P < 0.01) reduced intracellular APEC (superscript of t-statistic) ([5]; O1, HD11, 6 h): b (1X MIC)
- minimal effective concentration ([6]; Escherichia coli, O78, THP-1, 6 h treatment, read-out: SMs intracellular APEC clearance concentration): 50 µM
- intracellular APEC clearance concentration as multiple of MIC (superscript) ([6]; O78, THP-1): b (2X MIC)
- concentration at which the SM significantly (P < 0.01) reduced intracellular APEC (superscript of t-statistic) ([6]; O78, THP-1, 6 h): a (0.5X MIC)
- minimal effective concentration ([7]; Escherichia coli, O2, THP-1, 6 h treatment, read-out: SMs intracellular APEC clearance concentration): 100 µM
- concentration at which the SM significantly (P < 0.01) reduced intracellular APEC (superscript of t-statistic) ([7]; O2, THP-1, 6 h): b (1X MIC)
- minimal effective concentration ([8]; Escherichia coli, O2, HD11, 6 h treatment, read-out: SMs intracellular APEC clearance concentration): 50 µM
- intracellular APEC clearance concentration as multiple of MIC (superscript) ([8]; O2, HD11): b (2X MIC)
- concentration at which the SM significantly (P < 0.01) reduced intracellular APEC (superscript of t-statistic) ([8]; O2, HD11, 6 h): a (0.5X MIC)
- minimal effective concentration ([9]; Escherichia coli, O1, Caco-2, 6 h treatment, read-out: SMs intracellular APEC clearance concentration): 100 µM
- intracellular APEC clearance concentration as multiple of MIC (superscript) ([9]; O1, Caco-2): c (4X MIC)
- concentration at which the SM significantly (P < 0.01) reduced intracellular APEC (superscript of t-statistic) ([9]; O1, Caco-2, 6 h): c (2XMIC)
- minimal effective concentration ([10]; Escherichia coli, O2, Caco-2, 6 h treatment, read-out: SMs intracellular APEC clearance concentration): 100 µM
- intracellular APEC clearance concentration as multiple of MIC (superscript) ([10]; O2, Caco-2): c (4X MIC)
- concentration at which the SM significantly (P < 0.01) reduced intracellular APEC (superscript of t-statistic) ([10]; O2, Caco-2, 6 h): c (2XMIC)
- 260 nm absorbing materials in supernatant compared with DMSO (APEC O78 [11]): significantly (P < 0.05, Student’s t-test) increased
- 280 nm absorbing materials in supernatant compared with DMSO (APEC O78 [11]): significantly (P < 0.05, Student’s t-test) increased
- Absorbance 280 nm of treated supernatant (APEC O78 [11]; DMSO 2.58, superscript a P < 0.05 vs DMSO): 2.69^a
- Absorbance 260 nm of treated supernatant (APEC O78 [11]; DMSO 3.77, superscript a P < 0.05 vs DMSO): 3.91^a
- MBC (APEC O15): 25 µM
- MIC (APEC O15): 25 µM
- MBC (APEC O115): 25 µM
- MIC (APEC O115): 25 µM
- cytological profile (FM4-64 / SYTO-9 staining) (APEC O78 [12]): absence of FM4-64 stained membrane (membrane disruptors)
- MBC (APEC O35): 25 µM
- MIC (APEC O35): 25 µM
- MBC (APEC O1): 50 µM
- MIC (APEC O1): 25 µM

Reference: publication PMC6193035, “Novel small molecules affecting cell membrane as potential therapeutics for avian pathogenic Escherichia coli” (Scientific Reports, 2018)
